# According to patent publication US20190192524A1, “Modulators of Caspase-6” (The University of British Columbia, priority 2014, published 2019):
# Columns and labels:
# [1] = target: T1, interaction between 1212AA Htt and caspase-6 (Homo sapiens, UniProt P55212); test: Co-immunoprecipitation of Htt with caspase-6 antibody from COS-7 lysates; assay type: cell-based; conditions: 10 uM compound, vs DMSO
# T1 construct: DDK-tag (C); expressed in transfected cells; host or cells: COS-7
# T1 sequence (P55212 with tags, fused parts or gaps): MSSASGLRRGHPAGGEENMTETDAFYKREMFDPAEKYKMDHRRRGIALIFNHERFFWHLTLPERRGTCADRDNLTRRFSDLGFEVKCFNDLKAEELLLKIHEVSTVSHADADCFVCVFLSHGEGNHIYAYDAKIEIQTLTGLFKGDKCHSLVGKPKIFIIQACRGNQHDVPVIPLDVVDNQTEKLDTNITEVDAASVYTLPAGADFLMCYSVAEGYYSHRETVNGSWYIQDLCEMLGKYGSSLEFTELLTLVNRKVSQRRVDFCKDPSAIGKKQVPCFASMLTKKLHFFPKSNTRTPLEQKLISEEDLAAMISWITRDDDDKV
# Method: COS-7 cells were co-transfected with the 1212 amino acid HTT fragment (SEQ ID NO: 3) and the full length human caspase-6 enzyme (SEQ ID NO:4). The co-transfected cells were exposed to either 10 uM of the PG3d compound, 3 uM of the Q-VD-Oph pan-caspase inhibitor or were treated with DMSO as a control. An aliquot of the cell lysates were subjected to Western blotting to detect HTT fragments with the Htt antibody 2166 (Millipore) and the presence of caspase-6 was detected using the HD91 antibody (Ehrnhoefer et al, HMG, 2014. 23(3):717-29). The remaining cell lysates (500 ug protein) were immunoprecipitated with 5 ug of Caspase-6 antibody for 16 hrs at 4 C. The immunoprecipitated proteins were then applied to acrylamide gels and immunoblotted to detect either the HTT fragments or the presence of the active caspase 6 enzyme using the antibodies described above.
# As expected, the DMSO control lysates reveal a variety of Htt fragments within the immunocomplexes, including 513AA fragment generated by caspase-3 cleavage, the full-length 1212AA Htt and the 586AA fragment generated by caspase-6 cleavage. When the cells are treated with the pan-caspase inhibitor Q-VD-OPh, the amount of Htt cleavage fragments interacting with caspase-6 is reduced and it is evident that caspase-6 is primarily interacting with the 1212 AA Htt.
# [2] = target: T2, human caspase 6 lacking the pro-domain (Homo sapiens, UniProt P55212); test: Intracellular Htt cleavage by Western blot in co-transfected COS-7 cells; assay type: cell-based; parameters: DDK-tag (C); expressed in transfected cells; host or cells: COS-7
# T2 sequence (P55212 with tags, fused parts or gaps): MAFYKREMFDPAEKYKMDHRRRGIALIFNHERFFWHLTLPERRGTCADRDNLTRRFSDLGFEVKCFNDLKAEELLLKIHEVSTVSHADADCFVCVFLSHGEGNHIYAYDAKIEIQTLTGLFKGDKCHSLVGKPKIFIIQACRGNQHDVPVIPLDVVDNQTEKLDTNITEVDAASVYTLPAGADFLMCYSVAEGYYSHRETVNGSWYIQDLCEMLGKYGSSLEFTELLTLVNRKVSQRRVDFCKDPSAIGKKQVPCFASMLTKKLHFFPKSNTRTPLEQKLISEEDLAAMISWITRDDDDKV
# Method: COS-7 cells were co-transfected with the 4c htt fragment and the human caspase-6 lacking the pro-domain which leads to fast autoactivation of the caspase-6 enzyme and the generation of the 586 aa Htt cleavage fragment. The co-transfected cells were exposed to either 10 uM of the PG3d compound, 3 uM of the Q-VD-Oph pan-caspase inhibitor or were left untreated. Non-transfected cells were included as a negative control and the purified 586 aa Htt fragment was included as a positive control. Cell lysates were subjected to Western blotting and the 586AA fragment generated intracellularly was detected with Htt antibody 2166 (Millipore). Caspase-6 expression and activation was assessed by Western blotting using antibody HD91 (Ehrnhoefer et al, HMG, 2014. 23(3):717-29).
# COS-7 cells were co-transfected with the 4c htt fragment and the human caspase-6 lacking the pro-domain which leads to fast autoactivation of the caspase-6 enzyme and the generation of the 586 aa Htt cleavage fragment. […] Non-transfected cells were included as a negative control and the purified 586 aa Htt fragment was included as a positive control. […] The cell lysates were also assayed for the levels of active caspase 6 enzyme as shown in the lower panel of FIG. 5B.
compound,measurement,setting,value
"O=c1oc(C#Cc2ccccc2)nc(O)c1Cc1ccccc1 [PG-3d, 5-Benzyl-4-hydroxy-2-(phenylethynyl)-6H-1,3-oxazin-6-one]",interaction between 1212AA Htt and caspase-6 (co-immunoprecipitated Htt),[1],significantly reduces
same,level of active caspase 6 enzyme,[2]; 10 uM compound,decreased amount of active enzyme
same,generation of the 586 aa Htt cleavage fragment,[2]; 10 uM compound vs untreated cells,significant reduction
